# Experimental data from patent publication US6103761A, “Agents acting at cholecystokinin receptors” (Warner-Lambert Company, priority 1994, dated 2000).
# Target: T1, CCK-B receptor (Mus musculus, UniProt P56481)
# T1 construct: from tissue; host or cells: cerebral cortex membranes of male CFLP mice
# T1 sequence (P56481 1-453): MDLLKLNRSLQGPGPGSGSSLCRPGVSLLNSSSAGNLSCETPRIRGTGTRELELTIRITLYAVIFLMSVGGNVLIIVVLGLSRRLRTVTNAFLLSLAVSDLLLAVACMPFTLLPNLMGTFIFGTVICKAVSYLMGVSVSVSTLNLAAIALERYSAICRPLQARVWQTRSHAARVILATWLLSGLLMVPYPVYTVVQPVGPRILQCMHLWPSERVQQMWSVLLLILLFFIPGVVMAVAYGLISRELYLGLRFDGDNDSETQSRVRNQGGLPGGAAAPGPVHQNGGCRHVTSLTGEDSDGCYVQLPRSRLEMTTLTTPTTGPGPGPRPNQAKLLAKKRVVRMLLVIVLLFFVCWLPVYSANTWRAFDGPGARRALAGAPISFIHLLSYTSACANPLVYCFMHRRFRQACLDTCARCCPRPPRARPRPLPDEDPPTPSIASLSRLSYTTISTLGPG
# Assay: Displacement of tritiated-pentagastrin binding to mouse cerebral cortical membranes (CCK receptor binding)
# Design: species or system male CFLP mice
# Conditions: displacement of 2 nM tritiated-pentagastrin, Ki by Cheng-Prusoff equation, read-out: Ki, Binding Affinity CCK-B
# Procedure: The biological activity of compounds of the present invention was evaluated employing an initial screening test which rapidly and accurately measured the binding of the tested compound to known CCK receptor sites. […] (See Hays, et al., Neuropeptides 1980;1:53-62; and Satuer, et al., Science 1980;208:1155-6.)
# In this screening test, the cerebral cortices taken from male CFLP mice weighing between 30-40 g were dissected on ice, weighed, and homogenized in 10 volumes of 50 mM Tris-HCl buffer (pH 7.4 at 0-4° C.). The resulting suspension was centrifuged, the supernate was discarded, and the pellet was washed by resuspension in Tris-HCl buffer followed by recentrifugation. The final pellet was resuspended in 20 volumes of […] buffer (pH 7.2 at 23° C.) containing 130 mM NaCl, […], […], […], 5 mg/mL bovine albumin, and bacitracin (0.25 mg/mL).
# In saturation studies, cerebral cortical membranes were incubated at 23° C. for 120 minutes in a final volume of 500 μL of Hepes incubation buffer (pH 7.2) together with 0.2-20 nM tritiated-pentagastrin (Amersham International, England).
# In the displacement experiments, membranes were incubated with a single concentration (2 nM) of ligand, together with increasing concentrations ([…]) of competitive test compound. In each case, the nonspecific binding was defined as that persisting in the presence of the unlabeled octapeptide CCK26-33 (10^-6 M).
# Following incubation, radioactivity bound to membranes was separated from that free in solution by rapid filtration through Whatman GF/B filters and washed three times with 4 mL of ice cold Tris-HCl buffer. Filters from samples incubated with tritiated-pentagastrin were placed in polyethylene vials with 4 mL of scintillation cocktail, and the radioactivity was estimated by liquid scintillation spectrometry (efficiency 47%-52%).
# The specific binding to CCK receptor sites was defined as the total bound tritiated-pentagastrin minus the amount of tritiated-pentagastrin bound in the presence of 10^-6 octapeptide, CCK26-33.
# Saturation curves for specific tritiated-pentagastrin binding to mouse cortical membranes were analyzed by the methods of Scatchard (Ann New York Acad Sci 1949;51:660-72, and Hill, J Physiol 1910;40:IV-VIII), to provide estimates for the maximum number of binding sites (Bmax) and the equilibrium dissociation constant ([…]).
# In displacement experiments, inhibition curves were analyzed by either logit-log plots or the iterative curve fitting computer program ALLFIT (DeLean, Munson, Redbard, 1978) to provide estimates of the IC50 and nH (apparent Hill coefficient) values). (IC50 values were defined as the concentration of test compound required to produce 50% inhibition of specific binding.)
# The inhibition constant (Ki) of the test compound was then calculated according to the Cheng-Prusoff equation: [formula] where [L] is the concentration of radiolabel and Ka is the equilibrium dissociation constant.
row,SMILES,Ki
1,"Cc1ccc(S(=O)(=O)NC(=O)N[C@@H](c2ccccc2)[C@@H](NC(=O)Nc2ccc(Cl)cc2)c2ccccc2)cc1 [Example 64, (+)-[S-(R*,R*)]-N-[[[2-[[[(4-chlorophenyl)amino]-carbonyl]amino]-1,2-diphenylethyl]amino]carbonyl]-4-methyl-urea]",93 nM
2,"Cc1ccc(S(=O)(=O)NC(=O)N[C@H](c2ccccc2)[C@H](NC(=O)Nc2ccc(Cl)cc2)c2ccccc2)cc1 (relative stereo) [Example 46, [R-(R*,R*)] and [S-(R*,R*)]-N-[[[2-[[[(4-chlorophenyl)-amino]carbonyl]amino]-1,2-diphenylethyl]amino]-carbonyl]-4-methyl-benzenesulfonamide]",188 nM
3,"Cc1ccc(NC(=O)N[C@H](c2ccccc2)[C@H](NC(=O)NS(=O)(=O)c2ccc(C)cc2)c2ccccc2)cc1 (relative stereo) [Example 54, [R-(R*,R*)] and [S-(R*,R*)]-4-methyl-N-[[[2-[[[(4-methylphenyl)amino]carbonyl]amino]-1,2-diphenylethyl]amino]carbonyl]benzenesulfonamide]",178 nM
4,"Cc1ccc(S(=O)(=O)NC(=O)N[C@H](c2ccccc2)[C@H](NC(=O)Nc2ccc(C(F)(F)F)cc2)c2ccccc2)cc1 (relative stereo) [Example 14, [S-(R*,R*)] and [R-(R*,R*)]-N-[[[1,2-diphenyl-2-[[[[4-(trifluoromethyl)phenyl]amino]carbonyl]amino]-ethyl]amino]carbonyl]-4-methyl-benzenesulfonamide]",188 nM
5,"O=C(Nc1ccc(Cl)cc1)N[C@H](c1ccccc1)[C@H](NC(=O)NS(=O)(=O)c1ccccc1)c1ccccc1 (relative stereo) [Example 47, [R-(R*,R*)] and [S-(R*,R*)]-N-[[[2-[[[4-chlorophenyl)-amino]carbonyl]amino]-1,2-diphenylethyl]amino]-carbonyl]benzenesulfonamide]",290 nM

# Other lines, results leading:
row,Ki,SMILES
1,293 nM,"O=C(Nc1ccc(Cl)cc1)N[C@@H](c1ccccc1)[C@@H](NC(=O)Nc1ccc(C(F)(F)F)cc1)c1ccccc1 [Example 65, (+)-[S-(R*,R*)]-N-(4-chlorophenyl)-N'-[1,2-diphenyl]-2-[[[[4-(trifluoromethyl)phenyl]amino]carbonyl]amino]-ethyl]urea]"
2,309 nM,"O=C(Nc1ccc([N+](=O)[O-])cc1)N[C@H](c1ccccc1)[C@H](NC(=O)Nc1ccc(C(F)(F)F)cc1)c1ccccc1 (relative stereo) [Example 15, [S-(R*,R*)] and [R-(R*,R*)]-N-[1,2-diphenyl-2-[[[[4-(trifluoromethyl)phenyl]amino]carbonyl]amino]-ethyl]-N'-(4-nitrophenyl)urea]"
3,371 nM,"O=C(Nc1ccc(Cl)cc1)N[C@H](c1ccccc1)[C@H](NC(=O)Nc1ccc(C(F)(F)F)cc1)c1ccccc1 (relative stereo) [Example 10, [R-(R*,R*)] and [S-(R*,R*)]-N-(4-chlorophenyl)-N'-[1,2-diphenyl-2-[[[[4-(trifluoromethyl)phenyl]amino]-carbonyl]amino]ethyl]-urea]"
